Values joined by “and” are separate entries in the source; they are usually repeats but may differ in a detail not shown here. Equal values may be shown once. Read-outs that look alike come from different tables or passages of the source. One block for each molecule: values may come before it.
What was measured:
[1] = from CC(C)(C)OC(=O)N(CCOc1cc(N)ccc1C#N)CCc1nc(Cl)nc2c1CCC2c1ccc(F)cc1; cn_pd bond; 13-membered ring; Pd(OAc)2/Xantphos/Cs2CO3; 1,4-dioxane; 6.0 mM; 110.0 °C
Aβ42 = test: Cellular assay for inhibition of Aβ1-42 production (H4 APP751 SWE clone 8.20); type: cell-based; conditions: H4 APP751 SWE clone 8.20 cells, 19 h incubation
In short: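 19 h cell treatment, 37 °C/5% CO2. Detection of secreted Aβ42 in the cell plate: 565 (Aβ42-specific, Wallac) and 26D6 (N-terminal, APC), overnight 4 °C. IC50 from fitted curves.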

[2] = read-out: Activity Rating (Aβ42 cellular IC50), class symbol
[3] = 19 h, read-out: Activity Rating (Aβ42 cellular IC50), class symbol
[4] = 19 h, unit inferred, read-out: Activity Rating (Aβ42 cellular IC50), numeric value

IC50 (Aβ42; [3]): < 10 nM
Compound: Cc1ncn(-c2ccc3cc2OC/C=C\CN(C)c2nc(nc4c2CCC4c2ccccc2)N3)n1 (centres unmarked) [Example 44A, (11Z)-14-methyl-7-(3-methyl-1H-1,2,4-triazol-1-yl)-18-phenyl-10,13,14,16,17,18-hexahydro-15,2-(azeno)-8,4-(metheno)cyclopenta[h][1,6,10,12]oxatriazacycloheptadecine]

IC50 (Aβ42; [4]): 30 nM
Compound: Cc1ncn(-c2ccc3cc2OC/C=C\CN(C)c2nc(nc4c2CCC4c2ccccc2)N3)n1 (centres unmarked) [Example 44B, (11Z)-14-methyl-7-(3-methyl-1H-1,2,4-triazol-1-yl)-18-phenyl-10,13,14,16,17,18-hexahydro-15,2-(azeno)-8,4-(metheno)cyclopenta[h][1,6,10,12]oxatriazacycloheptadecine]

IC50 (Aβ42; [4]): 22 nM
Compound: Cc1ncn(-c2ccc3cc2OCCCCCc2nc(nc4c2CCC4c2ccccc2)N3)n1 (centres unmarked) [Example 62B, 7-(3-methyl-1H-1,2,4-triazol-1-yl)-18-phenyl-10,11,12,13,14,16,17,18-octahydro-15,2-(azeno)-8,4-(metheno)cyclopenta[h][1,10,12]oxadiazacycloheptadecine]

IC50 (Aβ42; [3]): < 10 nM
Compound: Cc1ncn(-c2ccc3cc2OCCCCNc2nc(nc4c2CN(C)CC4c2ccc(F)cc2)N3)n1 (racemic) [Example 70B, 19-(4-fluorophenyl)-17-methyl-7-(3-methyl-1H-1,2,4-triazol-1-yl)-11,12,13,14,16,17,18,19-octahydro-10H-15,2-(azeno)-8,4-(metheno)pyrido[3,4-h][1,6,10,12]oxatriazacycloheptadecine]

IC50 (Aβ42; [4]): 5.3 nM
Compound: Cc1ncn(-c2ccc3cc2OCCCCNc2nc(nc4c2CCC4c2ccc(F)cc2F)N3)n1 (centres unmarked) [Example 64A, 18-(2,4-difluorophenyl)-7-(3-methyl-1H-1,2,4-triazol-1-yl)-10,11,12,13,14,16,17,18-octahydro-15,2-(azeno)-8,4-(metheno)cyclopenta[h][1,6,10,12]oxatriazacycloheptadecine]

The next lines start with the molecule.

Compound: CC(C)(C)OC(=O)N1CCOc2cc(ccc2C#N)Nc2nc(c3c(n2)C(c2ccc(F)cc2)CC3)CC1 (centres unmarked)
ring closure, isolated yield [1]: 21.4%

Compound: Clc1cn(-c2ccc3cc2OCCCNC2=NC(=N3)NC3=C2CCC3c2ccccc2)cn1 (centres unmarked)
ring closure, yield after HPLC (cn_pd bond, 12-membered ring, Pd(dba)3 (so in the source)/Xantphos/Cs2CO3, 1,4-dioxane, 30.7 mM, 110.0 °C): 2.83% and 1.88%

Compound: Clc1cn(-c2ccc3cc2OC/C=C/CCNc2nc(nc4c2CCC4c2ccccc2)N3)cn1 (centres unmarked)
ring closure, yield after HPLC (rcm bond, 14-membered ring, Hoveyda-Grubbs II, 1,2-dichloroethane, 0.975 mM, 100.0 °C): 27.7%

Compound: CN1Cc2c(nc3nc2N(C)CC=CCOc2cc(ccc2C#N)N3)C(c2ccc(F)cc2)C1 (racemic)
ring closure, yield after HPLC (from C=CCOc1cc(Nc2nc3c(c(N(C)CC=C)n2)CN(C)CC3c2ccc(F)cc2)ccc1C#N, rcm bond, 13-membered ring, Hoveyda-Grubbs II, 1,2-dichloroethane, 3.0 mM, 90.0 °C): 4.95%

Compound: Cc1ncn(-c2ccc3cc2OCC(O)CCNc2nc(nc4c2CCC4c2ccc(F)cc2)N3)n1 (mixture of isomers)
ring closure, yield after HPLC (from Cc1ncn(-c2ccc(N)cc2OCC(O)CCNc2nc(Cl)nc3c2CCC3c2ccc(F)cc2)n1, cn_pd bond, 13-membered ring, Pd(OAc)2/Xantphos/Cs2CO3, dioxane, 100.0 mM, 100.0 °C): 24.4%

Compound: Cc1ncn(-c2ccc3cc2OC/C=C\CNc2nc(nc4c2CCC4c2ccc(F)cc2)N3)n1 (centres unmarked) [Example 45B, (11Z)-18-(4-fluorophenyl)-7-(3-methyl-1H-1,2,4-triazol-1-yl)-10,13,14,16,17,18-hexahydro-15,2-(azeno)-8,4-(metheno)cyclopenta[h][1,6,10,12]oxatriazacycloheptadecine]
IC50 (Aβ42; [2]): 10 to 100 nM

Compound: N#Cc1ccc2cc1OCC=CCNc1nc(nc3c1CCC3c1ccccc1)N2 (centres unmarked) [Example 22A, (11E)-7-cyano-18-phenyl-10,13,14,16,17,18-hexahydro-15,2-(azeno)-8,4-(metheno)cyclopenta[h][1,6,10,12]oxatriazacycloheptadecine]
IC50 (Aβ42; [2]): 10 to 100 nM

Compound: CN1CC=CCOc2cc(ccc2C#N)Nc2nc3c(c1n2)CCC3c1ccccc1 (centres unmarked) [Example 30A, (11E)-7-cyano-14-methyl-18-phenyl-10,13,14,16,17,18-hexahydro-15,2-(azeno)-8,4-(metheno)cyclopenta[h][1,6,10,12]oxatriazacycloheptadecine]
IC50 (Aβ42; [2]): 10 to 100 nM

Compound: CN1CC=CCOc2cc(ccc2-n2cnc(Cl)c2)Nc2nc3c(c1n2)CCC3c1ccccc1 (centres unmarked) [Example 4A, (11E)-7-(4-chloro-1H-imidazol-1-yl)-14-methyl-18-phenyl-10,13,14,16,17,18-hexahydro-15,2-(azeno)-8,4-(metheno)cyclopenta[h][1,6,10,12]oxatriazacycloheptadecine]
IC50 (Aβ42; [2]): < 10 nM
